# From patent US20230381094A1, “Cosmetic Composition with Skin Microbiome-Friendly Properties” (LG Household & Health Care Ltd., priority 2022, published 2023)
# Tested on: Staphylococcus epidermidis
# Assay: Beneficial skin bacteria affinity evaluation (challenge test)
# Type: cell-based
# Settings: Experimental Example 1; ingredient in oil-in-water composition of Preparation Example 1; FIG. 2 / FIG. 3
# From the text: As the beneficial bacteria serving as the affinity evaluation criterion of each composition prepared in Preparation Example 1, Staphylococcus epidermidis (S. epidermidis), a Gram positive bacterium, was selected. S. epidermidis is part of the skin flora present in large numbers in healthy skin, and is a representative beneficial bacterium that helps improve skin immunity and protect skin from external environmental factors by producing peptide antibiotics or PSM (phenol-soluble modulins) (Parlet, C. P., et al. (2019) Trends in microbiology, 27(6), 497-507). The evaluation of affinity for beneficial bacteria was performed by the challenge test method (Russell A. D., (2003), Int J Cosmet Sci., 25(3), 147-153) as follows.
# Specifically, S. epidermidis was first incubated in TSA (Tryptic Soy Agar) medium at 37° C. for 24 hours, and then inoculated into 50.0 g of each composition prepared in Preparation Example 1 so as to be 1×10^6 CFU to 1×10^7 CFU (colony-forming units)/mL. After inoculation, the bacteria were evenly mixed in the composition by vortexing or using a sterilized stick. After inoculation, the mixture was stored at room temperature. In consideration of the product usage cycle, such as cosmetics, and the general usage patterns of these products, a maximum of 24 hours was set as the time required for examination. With this determination, 24 hours after inoculation, 1 mL of the composition inoculated with the bacteria was diluted stepwise using a 0.85% NaCl solution, 100 μL of each diluted solution was spread on TSA medium, incubation was conducted at 37° C. for 48 hours, and then CFUs were counted.
# As the affinity evaluation criterion, the following “bacterial growth index*” parameter was used, and a composition having a bacterial growth index of −1.00 or more on day 1 after inoculation of bacteria was selected as a “cosmetic with beneficial skin bacteria-friendly properties” having an effect of maintaining beneficial skin bacteria or enhancing beneficial skin bacteria.
# *Bacterial growth index=log10[{Number of viable bacteria (CFU/g)}/{Number of inoculated bacteria (CFU/g)}]
row,Compound,growth of beneficial bacteria (result in words)
1,"CCOCCOCCOC(=O)C1CCC(C(=O)OCCOCCOCC)CC1 (centres unmarked) [bis-ethoxydiglycol cyclohexane 1,4-dicarboxylate]",inhibit the growth of beneficial bacteria
2,C=CCCCCCCCCC(=O)OCCCCCCC [heptyl undecylenate],inhibit the growth of beneficial bacteria
3,diethoxyethyl succinate,inhibit the growth of beneficial bacteria
4,inulin lauryl carbamate,did not inhibit the growth of beneficial bacteria
5,sodium dilauramidoglutamide lysine,did not inhibit the growth of beneficial bacteria
